Data as given in US8431596B2 (Cancer Research Technology Limited, priority 2007, dated 2013).
Where “and” joins values, the source holds several entries; their conditions need not be identical. Identical values can stand only once.

Target: T1, AXL (human catalytic domain) (Homo sapiens, UniProt P30530)
T1 construct: purchased Upstate Ltd. 14-512
T1 sequence (P30530 473-894): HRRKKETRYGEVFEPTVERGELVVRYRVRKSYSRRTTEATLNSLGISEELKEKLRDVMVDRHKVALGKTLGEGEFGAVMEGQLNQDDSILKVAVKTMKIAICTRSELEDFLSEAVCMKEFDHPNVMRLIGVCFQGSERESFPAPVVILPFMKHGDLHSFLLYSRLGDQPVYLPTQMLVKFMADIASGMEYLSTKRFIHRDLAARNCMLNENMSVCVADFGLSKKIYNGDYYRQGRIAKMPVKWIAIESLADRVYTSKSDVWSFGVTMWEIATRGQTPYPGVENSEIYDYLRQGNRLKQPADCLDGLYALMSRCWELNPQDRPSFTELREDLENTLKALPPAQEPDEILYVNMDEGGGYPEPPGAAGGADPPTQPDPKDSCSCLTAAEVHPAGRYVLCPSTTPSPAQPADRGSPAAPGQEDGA
Assay: AXL (human catalytic domain) Enzyme Activity Assay (IMAP fluorescence polarisation)
Format: biochemical
Description: Biological Methods AXL (human catalytic domain) Enzyme Activity Assay Reagents
Kinase Assay Reaction Buffer: This consisted of 20 mM HEPES pH 7.0, 10 mM MgCl2, 1 mM DTT, […], 0.01% Triton X100 (v/v), and 0.01% BSA (w/v). All buffer components were purchased from Sigma-Aldrich at reagent grade or higher.
Kinase: Recombinant AXL isoform 1 (aa473-894 corresponding to Genbank Accession Number NP 068713) at 2 mg/mL (20.8 μM) was purchased from Upstate Ltd. (Product code 14-512, lot #28164U). The enzyme was stored at −80° C. and a working stock was prepared to a concentration of 30 nM by diluting 20.8 μM stock 1:693 in cold (4° C.) 1× Reaction Buffer. Final enzyme concentration in the assay was 15 nM.
Substrate: Fluorescein labelled CSK-tide 5FAM-[…]-NH2 was obtained from Molecular Devices (Product code R7270) and used at a working concentration of 200 nM by diluting the 100 μM stock 1:500 in 1× Reaction Buffer in a mix with the enzyme. A negative control (lacking enzyme) was prepared at the same concentrations. Final substrate concentration in the assay was 100 nM.
ATP: Supplied by Sigma (product code A-7699). A 100 mM ATP stock was prepared in […] and used at a working concentration of 375 μM by diluting the 100 mM stock 1:266.6 in Reaction Buffer. Final ATP concentration in the assay was 150 μM; this concentration represents the KM.ATP for this enzyme calculated in this assay.
IMAP Reagents: IMAP screening express kit was obtained from Molecular Devices (product code R8127). The binding reagent was gently re-suspended before diluting by 1:1000 in buffer (Binding Buffer is supplied as a 5× stock and so was diluted with water prior to use—this assay used 40% buffer A and 60% buffer B) and then vortexed before addition to wells. The binding reagent was used at a final dilution of 1:1333.
1 μL samples of test compounds in 10% DMSO/water were added to “test” wells by dry-spotting using a Matrix Platemate Plus. 5 μL Kinase/Substrate in Reaction Buffer were added to columns 1-22 of a Corning black low binding 384 well #6754 (90 μL volume) microplate to give 12 nM and 100 nM reaction concentration respectively. 5 μL substrate in Reaction Buffer was added to columns 23 and 24 to give 100 nM reaction concentration. 4 μL ATP in Reaction Buffer was added to all wells to give 150 μM reaction concentration. The reaction mixture was then incubated at room temperature for 60 minutes. The incubation period was followed by the addition of 20 μL IMAP Binding Reagent in Binding Buffer to all wells. The IMAP reaction detection was further incubated at room temperature overnight. The FP on a Tecan Ultra Plate reader was recorded as a single read at Ex485 Em535.
Percentage inhibition was calculated based on activity of the test sample minus the average values in the blank wells relative to the average values measured in control wells minus the average values in the blank wells.
IC50 values were calculated from 10 point dose sigmoid ‘dose-response’ curves using XIfit software (IDBS Inc, USA). Data were fitted to a 4 parameter logistic model/sigmoidal dose response defined by the following equation:
[formula] where: • A=fit minimum (locked to 0); • B=fit maximum (locked to 100); • C=fit midpoint (pre-fit to 1); and • D=slope at linear portion of curve, hillslope (pre-fit to 0.1).
The value for C represents the IC50 of the test compound.

[1] = further data set (WW-001 through WW-169, XX-001 through XX-469, YY-001 through YY-016, ZZ-001 through ZZ-003), 150 μM ATP
[2] = first data set, recombinant AXL isoform 1 aa473-894, 150 μM ATP

IC50 [1] [nM] | IC50 [2] | SMILES
≤ 100 |  | CCN(CC)CCOc1cc(Nc2nc3cccc(-c4ccc(OC)c(F)c4)n3n2)ccn1 [XX-359]
100 to 1000 |  | c1cc(-c2ccc(OCC3CCCO3)cc2)n2nc(Nc3ccc(OCCN4CCCC4)cc3)nc2c1 (stereo not shown) [XX-146]
1000 to 10000 |  | O=C(Cn1cc(-c2cccc3nc(Nc4ccc(OCCN5CCCC5)cc4)nn23)cn1)NC1CC1 [XX-437]
100 to 1000 |  | c1cc(NCCCN2CCCC2)cc(Nc2nc3cccc(-c4ccc5c(c4)OCCO5)n3n2)c1 [XX-117]
100 to 1000 |  | CCN(CC)CCOc1cc(Nc2nc3cccc(-c4cc5ccccc5o4)n3n2)ccn1 [XX-364]
100 to 1000 |  | c1cc(-c2ccc3c(c2)OCCO3)n2nc(Nc3cnc(OCCN4CCCC4)nc3)nc2c1 [XX-097]
100 to 1000 | < 1000 nM | O=C(Nc1nc2cccc(-c3ccc4ccccc4c3)n2n1)C1CC1 [WW-089]
1000 to 10000 | 1000 to 10000 nM | O=C(Nc1nc2cccc(-c3ccc(NS(=O)(=O)c4ccccc4)cc3)n2n1)C1CC1 [WW-156]
1000 to 10000 | 1000 to 10000 nM | O=C(Nc1nc2cccc(-c3cnc4ccccc4c3)n2n1)C1CC1 [WW-085]
1000 to 10000 | 1000 to 10000 nM | COc1ccc(-c2cccc3nc(NC(=O)C4CC4)nn23)cc1OC [WW-100]
≤ 100 |  | Cc1ccc(-c2cccc3nc(Nc4ccc(OCCN5CCCC5)cc4)nn23)cc1F [XX-280]
100 to 1000 |  | O=C(Nc1cccc(-c2cccc3nc(Nc4ccc(OCCN5CCCC5)cc4)nn23)c1)c1ccno1 [XX-192]
100 to 1000 |  | c1ccc2cc(-c3cccc4nc(Nc5ccc(OCCN6CCCC6)cc5)nn34)ccc2c1 [XX-242]
1000 to 10000 |  | O=C(Nc1ccc(C(F)(F)F)cc1)Nc1cccc(-c2cccc3nc(Nc4ccc(OCCN5CCCC5)cc4)nn23)c1 [XX-225]
100 to 1000 |  | O=C(Nc1ccccc1)Nc1cccc(-c2cccc3nc(Nc4ccc(OCCN5CCCC5)cc4)nn23)c1 [XX-174, 1-Phenyl-3-(3-{2-[4-(2-pyrrolidin-1-yl-ethoxy)-phenylamino]-[1,2,4]triazolo[1,5-a]pyridin-5-yl}-phenyl)-urea]
1000 to 10000 |  | CC(C)NC(=O)Cn1cc(-c2cccc3nc(Nc4ccc(OCCN5CCCC5)cc4)nn23)cn1 [XX-434]
100 to 1000 |  | c1cc(NCc2ccco2)cc(-c2cccc3nc(Nc4ccc(OCCN5CCCC5)cc4)nn23)c1 [XX-257]
≤ 100 |  | CCN(CC)CCCNc1cccc(Nc2nc3cccc(-c4ccc5c(c4)OCCO5)n3n2)c1 [XX-130]
100 to 1000 | < 1000 nM | COc1ccc(-c2cccc3nc(Nc4ccc(OCCNc5ccncc5)cc4)nn23)cc1 [XX-028]
100 to 1000 |  | Cc1cccc(S(=O)(=O)NCc2cccc(-c3cccc4nc(Nc5ccc(OCCN6CCCC6)cc5)nn34)c2)c1 [XX-370]
≤ 100 | < 1000 nM | CN(C)CCNC(=O)c1ccc(Nc2nc3cccc(-c4ccc5occc5c4)n3n2)cc1 [XX-084]
100 to 1000 |  | CC(C(=O)Nc1ccc(Nc2nc3cccc(-c4ccc5c(c4)OCCO5)n3n2)cc1)N1CCCC1 (stereo not shown) [XX-135]
1000 to 10000 | 1000 to 10000 nM | COc1ccc(Nc2cccc3nc(NC(=O)C4CC4)nn23)cc1 [WW-127, Cyclopropanecarboxylic acid [5-(4-methoxy-phenylamino)-[1,2,4]triazolo[1,5-a]pyridin-2-yl]-amide]
100 to 1000 |  | Cc1ccc(-c2cccc3nc(Nc4cccc(C(=O)NCCN5CCCC5)c4)nn23)cc1F [XX-365]
1000 to 10000 |  | Cc1ccc(-c2cccc(-c3cccc4nc(Nc5ccc(OCCN6CCCC6)cc5)nn34)c2)s1 [XX-463]

IC50 [1] [nM] | IC50 [2] | SMILES
100 to 1000 |  | Cc1cccc(-c2cccc3nc(Nc4ccc(OCCN5CCCC5)cc4)nn23)c1 [XX-213]
100 to 1000 | < 1000 nM | O=C(Nc1nc2cccc(-c3ccc4ncccc4c3)n2n1)C1CC1 [WW-092]
1000 to 10000 | 1000 to 10000 nM | Cc1ccc(-c2cccc3nc(NC(=O)C4CC4)nn23)cn1 [WW-084]
1000 to 10000 | 1000 to 10000 nM | O=C(Nc1nc2cccc(-c3ccc(CO)cc3)n2n1)C1CC1 [WW-027]
1000 to 10000 | 1000 to 10000 nM | COCC(=O)Nc1nc2cccc(-c3ccc(OC)cc3)n2n1 [WW-041]
1000 to 10000 |  | O=C(O)Cn1cc(-c2cccc3nc(Nc4ccc(OCCN5CCCC5)cc4)nn23)cn1 [XX-440, (4-{2-[4-(2-Pyrrolidin-1-yl-ethoxy)-phenylamino]-[1,2,4]triazolo[1,5-a]pyridin-5-yl}-pyrazol-1-yl)-acetic acid]
100 to 1000 |  | Clc1cccc(SCCn2cc(-c3cccc4nc(Nc5ccc(OCCN6CCCC6)cc5)nn34)cn2)c1 [XX-431]
100 to 1000 |  | Fc1ccc(CNc2cccc(-c3cccc4nc(Nc5ccc(OCCN6CCCC6)cc5)nn34)c2)cc1 [XX-456]
1000 to 10000 |  | CCN(CC)CCOc1ccc(Nc2nc3cccc(-c4ccc(OC)cc4)n3n2)cc1F [XX-412]
100 to 1000 |  | Cc1cc(C)cc(-c2cccc3nc(Nc4ccc(OCCN5CCCC5)cc4)nn23)c1 [XX-292]
1000 to 10000 |  | COc1ccc(-c2cccc3nc(Nc4ccnc(C(=O)NCCN5CCCC5)c4)nn23)cc1 [XX-386]
≤ 100 | < 1000 nM | CNCCOc1cccc(Nc2nc3cccc(-c4ccc5occc5c4)n3n2)c1 [XX-086]
100 to 1000 |  | CCN(CC)CCOc1cc(Nc2nc3cccc(-c4ccc(OC)cc4)n3n2)cc(F)c1F [XX-418]
≤ 100 | < 1000 nM | COc1cc(Nc2nc3cccc(-c4ccc5c(c4)OCCO5)n3n2)ccc1OCCN1CCCC1 [XX-001]
100 to 1000 |  | CN(C)CCCc1cccc(Nc2nc3cccc(-c4ccc5c(c4)OCCO5)n3n2)c1 [XX-115, [5-(2,3-Dihydro-benzo[1,4]dioxin-6-yl)-[1,2,4]triazolo[1,5-a]pyridin-2-yl]-[3-(3-dimethylamino-propyl)-phenyl]-amine]
1000 to 10000 | 1000 to 10000 nM | COc1ccc(-c2cccc3nc(Nc4ccc(N(C)C)cc4)nn23)cc1 [XX-057]
100 to 1000 |  | Clc1ccc(-c2cccc3nc(Nc4ccc(OCCN5CCCC5)cc4)nn23)cc1Cl [XX-297]
100 to 1000 |  | C#CCn1cc(-c2cccc3nc(Nc4ccc(OCCN5CCCC5)cc4)nn23)cn1 [XX-302]
100 to 1000 | < 1000 nM | NC(=O)COc1ccc(Nc2nc3cccc(-c4ccc5c(c4)OCCO5)n3n2)cc1 [XX-073]
100 to 1000 | < 1000 nM and 664 nM | Cc1cc(-c2cccc3nc(NC(=O)C4CC4)nn23)ccc1N(C)C [WW-103]
100 to 1000 | < 1000 nM | O=C(Nc1nc2cccc(-c3ccc(-c4ccccc4)cc3)n2n1)C1CC1 [WW-063]
100 to 1000 |  | Cc1nc(C)c(CNc2cccc(-c3cccc4nc(Nc5ccc(OCCN6CCCC6)cc5)nn34)c2)s1 [XX-263]
100 to 1000 |  | Cc1noc(C)c1S(=O)(=O)n1cc(-c2cccc3nc(Nc4ccc(OCCN5CCCC5)cc4)nn23)cn1 [XX-385]
1000 to 10000 |  | O=C(Nc1ccc(-c2cccc3nc(Nc4ccc(OCCN5CCCC5)cc4)nn23)cc1)c1ccccc1 [XX-221, N-(4-{2-[4-(2-Pyrrolidin-1-yl-ethoxy)-phenylamino]-[1,2,4]triazolo[1,5-a]pyridin-5-yl}-phenyl)-benzamide]
≤ 100 |  | O=C(NCCN1CCCC1)c1ccc(Nc2nc3cccc(-c4ccc5c(c4)OCCO5)n3n2)cc1 [XX-110]
